Consider two compounds from patent US7429679B2, “Sulphonic acid salt of sibutramine” (CJ Corporation, priority 2005, dated 2008).

Each structure is given as a SMILES string. Structures can show the parent of a compound that is named as a salt. Where two headings read alike, the source gives them in different places.

What all share (assay type): physicochemical
The nature of series [1]: Evaluation of hygroscopicity: water content (K.F.) after exposure to humid conditions at 25° C. The method, then: The sulphonic acid salts of sibutramine, prepared in Examples 1 to 5, and sibutramine hydrochloride monohydrate were exposed to humid conditions (10%, 75% and 90% RH) at 25° C. for a period of three days or one week. Then, the water content (K.F. water %) of the samples was measured.

The nature of series [2]: Evaluation of solubility in distilled water and aqueous solutions having various pH values.
A short description of series [3]: Evaluation of light stability: exposure to fluorescence at 25° C., ICH light stability test chamber, content by HPLC. Also noted: content (HPLC) in light stability test: reference not given here. The method, then:
A light stability test was performed as follows. The sulphonic acid salts of sibutramine, prepared in Examples 1 to 5, and sibutramine hydrochloride monohydrate were exposed to fluorescence at 25° C. using a light stability test chamber suitable for the ICH guideline, for storage periods of 1, 2 and 4 weeks.

The nature of series [4]: Evaluation of stability: stringent 60° C. heat treatment, content by HPLC. Also noted: content (HPLC) upon 60° C. heat treatment: reference not given here. The method, then: The sulphonic acid salts of sibutramine, prepared in Examples 1 to 5, and sibutramine hydrochloride monohydrate were exposed to a stringent 60° C. heat treatment.
HPLC was performed under the following conditions.
Wavelength of UV detection: 225 nm
Column: octadecyl silica gel, C18 (4.6×150 mm, 5 μm)
Mobile phase: an aqueous solution of ammonium phosphate monohydride (0.05 M) (adjusted to pH 6 with phosphoric acid): acetonitrile=35:65

As usually defined, the solubility is the dissolved amount per volume that the medium holds. For `CC(C)CC(N(C)C)C1(c2ccc(Cl)cc2)CCC1` (stereo not drawn) [Besylate, sibutramine besylate], the “water content (K.F. water %)” value in series [1] (10% relative humidity, 25° C., 1 week, listed as Bensylate) amounted to 0.02%; in series [1] (10% relative humidity, 25° C., 3 days, listed as Bensylate) it was 0.02%; in series [1] (75% relative humidity, 25° C., 1 week, listed as Bensylate) it was 0.05%; in series [1] (75% relative humidity, 25° C., 3 days, listed as Bensylate), 0.02%; in series [1] (90% relative humidity, 25° C., 1 week, listed as Bensylate) it was 0.05%; in series [1] (90% relative humidity, 25° C., 3 days, listed as Bensylate), 0.05%. The “water content (K.F. water %)” value in series [1] (Initial, listed as Bensylate) was 0.02%. The “change in water content under humid conditions (in words)” value in series [1] (relative humidities of 10%, 75% and 90%, up to one week or longer) is “almost no change in water content”. The solubility is 19180 µg/mL in series [2] (DW (distilled water)); greater than 3000 µg/mL in series [2] (aqueous buffer, distilled water (DW) and buffer solutions at various pH values, read-out: solubility against the solubility sufficient for preparing pharmaceutical formulations such as capsules); 15180 µg/mL in series [2] (pH 1.2); 8510 µg/mL in series [2] (pH 4.0); 5720 µg/mL in series [2] (pH 5.3); 21860 µg/mL in series [2] (pH 6.8). This compound also yielded a solubility in series [2] (pH 7.4) of 7010 µg/mL. The “solubility compared to sibutramine hydrochloride monohydrate (in words)” value in series [2] (distilled water (DW) and buffer solutions at various pH values) was “slightly lower solubility than sibutramine hydrochloride monohydrate”; in series [2] (distilled water (DW) and buffer solutions at various pH values, listed as besylate), “slightly low solubility compared to sibutramine hydrochloride monohydrate”. For the same compound, the “content (HPLC) in light stability test” value in series [3] (Initial) worked out at 1.000; in series [3] (fluorescence, 25° C., 1 wk) it was 1.000; in series [3] (fluorescence, 25° C., 2 wks), 0.999; in series [3] (fluorescence, 25° C., 4 wks), 0.999. In addition, the “content (HPLC) upon 60° C. heat treatment” value in series [4] (60° C., 1 wk) amounted to 1.000; in series [4] (60° C., 2 wks) it was 0.999; in series [4] (60° C., 4 wks), 1.000; in series [4] (Initial) it was 1.000.
As to `CC(C)CC(N(C)C)C1(c2ccc(Cl)cc2)CCC1` (stereo not drawn) [HCl monohydrate, sibutramine hydrochloride monohydrate, reference compound], the “water content (K.F. water %)” value is 5.48% in series [1] (10% relative humidity, 25° C., 1 week, hydrochloride monohydrate); 5.51% in series [1] (10% relative humidity, 25° C., 3 days, hydrochloride monohydrate); 5.50% in series [1] (75% relative humidity, 25° C., 1 week, hydrochloride monohydrate); 5.49% in series [1] (75% relative humidity, 25° C., 3 days, hydrochloride monohydrate); 5.49% in series [1] (90% relative humidity, 25° C., 1 week, hydrochloride monohydrate); 5.50% in series [1] (90% relative humidity, 25° C., 3 days, hydrochloride monohydrate). In addition, in series [1] (Initial, hydrochloride monohydrate), the “water content (K.F. water %)” value is reported as 5.50%. The “content (HPLC) in light stability test” value is reported as 1.000 in series [3] (Initial); 0.999 in series [3] (fluorescence, 25° C., 1 wk, hydrochloride monohydrate); 1.000 in series [3] (fluorescence, 25° C., 2 wks, hydrochloride monohydrate); 0.999 in series [3] (fluorescence, 25° C., 4 wks, hydrochloride monohydrate). Also, the “light stability (in words)” value in series [3] (content changes analyzed by HPLC) is “good light stability”. Also, the “content (HPLC) upon 60° C. heat treatment” value was determined as 0.999 in series [4] (60° C., 1 wk, hydrochloride monohydrate); 0.999 in series [4] (60° C., 2 wks, hydrochloride monohydrate); 0.999 in series [4] (60° C., 4 wks, hydrochloride monohydrate); 1.000 in series [4] (Initial). Moreover, the “change in content / impurities upon 60° C. heat treatment (in words)” value in series [4] (60° C., up to one month or longer) is reported as “almost no change in content”.
